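Cells were grown in 96-well plates and exposed to each compound for 48 hours at five concentrations; endpoints were interpolated linearly between bracketing concentrations, or set to the highest concentration if not reached. GI50 is the concentration that inhibits growth by half. Definition used: TGI = concentration required for complete inhibition of growth.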 Where a SMILES comes first, the peptide text is derived from it. [ ]: non-standard residue; d: D form. The star is where a group is joined. ξ: configuration not given here. Propanoyl(3-(4-MeO-Ph)) = COc1ccc(CCC(=O)*)cc1; Thr(3ξ) = CC(O)[C@H](N)C(=O)O; dNMeL = CN[C@H](CC(C)C)C(=O)O; pGlu = O=C1CC[CH](C(=O)O)N1; ξLac = CC(O)C(=O)O
Assays:
Experiment in all cases: NCI tumour cell line growth inhibition, 48 h
[1] = test system: HCT-15 colon
[2] = test system: HL-60(TB) leukemia
[3] = test system: HS 578T breast
[4] = test system: NCI-H226 lung
[5] = test system: RPMI-8226 leukemia
[6] = test system: SF-295 CNS
[7] = test system: SN12C renal
[8] = test system: SR leukemia
[9] = test system: T-47D breast
[10] = test system: LOX IMVI melanoma

Compound | TGI [1] [µM] | TGI [2] [µM] | TGI [3] [µM] | TGI [4] [µM] | TGI [5] [µM] | TGI [6] [µM] | TGI [7] [µM] | TGI [8] [µM] | TGI [9] [µM] | TGI [10] [µM] | GI50 [2] [µM] | GI50 [3] [µM] | GI50 [10] [µM] | GI50 [5] [µM]
O=C(O)CN(CC(=O)O)Cc1ccn(-c2cccc(-n3ccc(CN(CC(=O)O)CC(=O)O)n3)n2)n1 | > 100 | > 100 | > 100 | > 100 | > 100 | > 100 | > 100 | > 100 | > 100 |  |  |  |  | 
O=C1c2ccccc2-c2nnc(-c3ccc(Cl)cc3)cc21 | > 10 | > 10 | > 10 | > 10 | > 10 | > 10 | > 10 | > 10 | > 10 | > 10 |  |  |  | 
O=[N+]([O-])c1ccc2nc(/C=C(\O)c3ccccc3)c(/C=C(\O)c3ccccc3)nc2c1 | > 100 | 52.6 | 48.6 | > 100 | 61.7 | 48.3 | > 100 | > 94.9 | 37.3 | 21.3 | 13.6 | 6.83 | 7.18 | 5.21
COc1ccc(NCc2cnc3nc(N)nc(N)c3c2C)cc1 | > 100 | > 100 | > 100 | > 93.9 | > 100 |  | > 100 | > 100 | > 92.8 | > 100 |  |  |  | 
CCCCCCCCCCCCCCCCCCOc1ccc(/C=C/C2=[N+](CCCl)CCO2)cc1 | > 100 | > 100 | > 100 |  | > 100 | > 100 | > 100 | > 100 | > 100 | > 100 |  |  |  | 
NC(=O)C[C@H](NC(=O)C1(NC(=O)[C@H](Cc2ccc(CP(=O)(O)O)cc2)NC(=O)C(=O)O)CCCCC1)C(=O)NCCCc1cccc2ccccc12 | > 10 | > 10 | > 10 | > 10 | > 10 | > 10 | > 10 | 7.86 | > 10 | > 10 |  |  |  | 
CSC1(SC)N2Cc3ccccc3N=C2C1(c1ccccc1)c1ccccc1 | > 100 | > 53.1 | > 82.5 | > 100 | 97.1 | > 100 | > 64.1 | 9.36 | > 100 | 44.4 |  |  |  | 
O=C(Cn1c(=O)oc2ccc(C(=O)c3ccccc3Cl)cc21)c1ccc([N+](=O)[O-])cc1 | 65.4 | > 100 | > 100 | > 100 | 77.2 | 81.7 | 65.5 | > 100 | 56.5 | 30.9 |  |  |  | 
COC(=O)[C@@H](NC(=O)[C@@H](CC(C)C)N(C)C(=O)[C@@H]1CCCN1C(=O)C(C)O)C(C)OC(=O)CCc1ccc(OC)cc1 (stereo partly specified) (H-[ξLac]P[dNMeL][Thr(3ξ)](Propanoyl(3-(4-MeO-Ph)))-OMe) | > 100 | > 100 | > 100 | > 100 | > 100 | > 100 | > 100 | > 100 | > 100 | > 100 |  |  |  | 
c1ccc(CCN2CCN=C2Cc2ccccc2)cc1 | > 100 | > 100 | > 100 | > 100 | > 100 | > 100 | > 100 | > 100 | > 100 | > 100 |  |  |  | 
CCOc1cc2c(cc1O)CC[C@@H]1[C@@H]2CC[C@]2(C)C(OS(=O)OC3CC[C@@H]4[C@H]5CCc6cc(O)c(OCC)cc6[C@@H]5CC[C@@]34C)CC[C@@H]12 (stereo partly specified) | 15.3 | 0.929 | > 57.3 | 14.6 | 13.9 | 22.5 | 28.9 | > 44 | > 100 | > 51.7 |  |  |  | 
N#CCSc1c(-c2ccccc2)c(=O)n(-c2ccccc2)c(=S)n1-c1ccccc1 | > 100 | > 100 | > 100 | > 100 | > 100 | > 100 | > 100 | > 100 | > 100 | > 100 |  |  |  | 
COc1ccc(-c2nnc(-c3ccncc3)o2)cc1 | > 100 | > 100 | > 100 | > 100 | > 100 | > 100 | > 100 | > 100 | > 100 | > 100 |  |  |  | 
COC(=O)C(Cc1ccccc1)NC(=O)c1ccc(CNC(=S)NCc2cccc(CNC(=S)NCc3ccccc3)c2)cc1 (stereo unspecified) | > 62.5 | > 62.5 | > 62.5 | > 62.5 | > 62.5 | > 62.5 | > 62.5 | > 62.5 | > 62.5 | > 62.5 |  |  |  | 
Cc1[nH]c(=O)nc2nc3ccc(Cl)cc3c(NC(C)(CO)CO)c12 | > 100 | > 100 | > 100 | > 100 | > 100 | > 100 | > 100 | > 100 | > 100 | > 100 |  |  |  | 
COC(=O)c1c(O)ccc2c1c1c(n2Cc2ccccc2OC)C(=O)c2ccccc2C1 | > 100 | > 100 | > 100 | > 100 | 72.2 |  | 74.9 | > 100 | > 100 | > 100 |  |  |  | 
COc1cc(/C=C2\N=C(C)N(n3c(-c4ccccc4)nc4ccccc4c3=O)C2=O)cc(OC)c1OC | > 100 | > 100 | > 100 | > 100 | > 100 | > 100 | > 100 | > 100 | > 100 | > 100 |  |  |  | 
CC(NC(=O)C(Cc1cnc[nH]1)NC(=O)C1CCC(=O)N1)C(N)=O (stereo not drawn) ([pGlu]-His-Ala-NH2; configuration not given here) |  | > 100 | > 100 | > 100 | > 100 | > 100 | > 100 | > 100 | > 100 | > 100 |  |  |  | 
CN(C)CCNC(=O)c1cccc2[nH]c(-c3ccncc3)nc12 | 10.4 | 4.06 | 29.6 | > 50.5 | 21.5 | 7.97 | > 76.3 | > 100 | > 86.1 | 1.81 |  |  |  | 
CCCCC1(N=[N+]=[N-])C(=O)C2C=CC=C3c4ccccc4N(C1=O)C32 (stereo unspecified) | > 31.6 | > 100 | 26 | > 31.6 | > 31.6 | > 31.6 | > 31.6 | > 10 | > 31.6 | > 31.6 |  |  |  | 
COc1ccc(-c2nnc(CCCCCCCCc3nnc(-c4ccc(OC)cc4)n3N)n2N)cc1 | > 100 | > 100 | > 100 | > 100 | > 100 | > 100 | > 100 | > 100 | > 100 | > 100 |  |  |  | 
C[C@]12CC[C@H](O)CC1=CC[C@@H]1[C@@H]2CC[C@]2(C)c3nc(Cl)ccc3C[C@@H]12 | > 81.3 | > 100 | > 100 | > 100 | > 100 | > 100 | > 94.8 | > 100 | > 100 | > 100 |  |  |  | 
Cc1cc2c(cc1-c1cc3c(cc1C)C(C(C)C)=C(O)C(=O)/C3=C\Nc1c(C)n(C)n(-c3ccccc3)c1=O)/C(=C/Nc1c(C)n(C)n(-c3ccccc3)c1=O)C(=O)C(O)=C2C(C)C | > 100 | > 100 | > 100 | > 100 | > 100 | > 100 | > 100 | > 100 | > 100 |  |  |  |  | 
S=c1nc2sc3c(c2c(Nc2ccc(Br)cc2)[nH]1)CCN(N1CCc2c(sc4nc(=S)[nH]c(Nc5ccc(Br)cc5)c24)C1)C3 | > 50 | > 50 | > 50 | > 50 | > 50 | > 50 | > 50 | > 50 | > 50 | 24.9 |  |  |  | 
COc1ccc2oc(=Nc3ccc(F)cc3)c(C(N)=O)cc2c1 | > 100 | > 100 | > 100 | > 100 | > 100 | > 100 | > 100 | > 100 | 94.8 | > 100 |  |  |  | 
Clc1cc(OCC23CC4CC(CC(C4)C2)C3)nc(OCC23CC4CC(CC(C4)C2)C3)n1 | > 100 | > 100 | > 100 |  | > 100 | > 100 | > 100 | > 100 | > 100 | > 100 |  |  |  | 
O=C(CCc1ccc(O)c(O)c1)NCCc1ccc(O)c(O)c1 | > 100 | > 100 | > 100 | > 100 | > 100 | > 100 | > 100 | 74.1 | > 100 | > 100 |  |  |  | 
Cc1nc2c(Cl)cc(Cl)cc2c(Cl)c1CCCl | > 100 | > 100 | > 100 | > 100 | > 100 | > 100 | > 100 | > 100 | 89.7 | > 100 |  |  |  | 
CCOC(=O)C1=NN(c2ccc(Cl)cc2)C2=CC(C)=NN(C)C(=S)N21 | > 100 | > 100 | > 100 |  | > 100 | > 100 | > 100 | > 100 | 94.8 | > 100 |  |  |  | 
N#CCOc1cccc(C2(N3CC=CCC3)CCCCC2)c1 | > 100 | > 100 | > 100 | > 100 | > 100 | > 100 | > 100 | > 100 | > 100 | > 100 |  |  |  | 

Source: PubChem BioAssay (NCI)
